# From US11419852B2, “Beta-lactam compounds or salts thereof for use in long-acting prevention or treatment of a glucose metabolism disorder” (GLYCOLYSIS BIOMED CO., LTD., priority 2019, dated 2022)
# Marks after values point to notes of the source that are not given here.
# Assays:
# Assay type in all cases: in vivo
# [1] = Food and water intake of mice
# Protocol: Four to five weeks old db/db mice (BKS.Cg-Dock7^m+/+Lepr^db/JNarl) and m/m mice (BKS.Cg-Dock7^m+/Dock7^m+) were obtained from National Laboratory Animal Center ([…], Taiwan). […] PMI Nutrition International, Brentwood, Mo.) and water ad libitum. […] The mouse body weight (bw) and the amounts of water and food intake were recorded weekly for the entire study period.
# [2] = tested on: db/db mice; experiment: Fasting plasma glucose (FPG) measurement; conditions: for Average FPG level: dosing 6 weeks
# Protocol: Four to five weeks old db/db mice (BKS.Cg-Dock7^m+/+Lepr^db/JNarl) and m/m mice (BKS.Cg-Dock7^m+/Dock7^m+) were obtained from National Laboratory Animal Center (Nangang, Taipei, Taiwan). These animals were maintained in a facility with a 12-h dark-light cycle at 24±2° C. and 65±5% humidity and were provided food (No. 5001; PMI Nutrition International, Brentwood, Mo.) and water ad libitum. For experiments, the average body weight of m/m mice was approximately 20 g, and that of db/db mice was approximately 30 g.
# For each mouse, blood was sampled from the tail vein and measured for FPG levels using a blood glucose meter (OneTouch UltraEasy, Johnson & Johnson, USA) at a predestined time point.
# [3] = tested on: db/db mice; experiment: Oral glucose tolerance test (OGTT); set-up: OGTT AUC: unit not given here
# Protocol: Four to five weeks old db/db mice (BKS.Cg-Dock7^m+/+Lepr^db/JNarl) and m/m mice (BKS.Cg-Dock7^m+/Dock7^m+) were obtained from National Laboratory Animal Center ([…], Taiwan). […] PMI Nutrition International, Brentwood, Mo.) and water ad libitum. […] Blood was sampled from the tail vein, and FPG levels were measured and recorded as the basic blood glucose levels. […] The total area under the curve (AUC) in OGTT was plotted and calculated by the Area Under Coordinates Program (StatsToDo Server, Department of Obstetrics and Gynecology, Chinese University of Hong Kong).
# [4] = Ex 1: db/db mice, ertapenem i.p. 0.41 mg/g bw/day, 3 weeks
# [5] = Ex 3: db/db mice, daily dosing 3 weeks at doses of Table 10
smiles,measurement,setting,value
"C[C@@H](O)[C@H]1C(=O)N2C(C(=O)O)=C(S[C@@H]3CN[C@H](C(=O)Nc4cccc(C(=O)O)c4)C3)[C@H](C)[C@H]12 [DMH, ertapenem]",Food and water intake vs DB group,"[1]; Ex 1: db/db mice, 0.41 mg/g bw/day i.p., entire study period, P<0.05",reduced
same,Diet intake,[1]; [4],5.0 ± 0.9 g/mice/day
same,Water intake,[1]; [4],6.8 ± 1.6 mL/mice/day
same,Food intake in db/db mice,"[1]; Ex 3, P<0.05",significantly reduced
same,Water intake in db/db mice,"[1]; Ex 3, P<0.05",significantly reduced
same,Diet intake,[1]; [5],5.2 ± 1^b g/mice/day
same,Water intake,[1]; [5],8.4 ± 1^c mL/mice/day
same,Duration of blood-glucose-lowering effect after treatment was stopped,"[2]; Ex 2, db/db mice",at least 6 weeks
same,Lowering blood glucose levels (FPG) in db/db mice,"[2]; Ex 2, week 3, 0.1 mg/g bw and 0.4 mg/g bw vs metformin 0.3 mg/g bw",as effective as metformin
same,Average FPG level,"[2]; Ex 2 G4 db/db, DMH i.p. 0.1 mg/g bw/day, week 0",139 ± 21^b
same,Average FPG level,"[2]; Ex 2 G4 db/db, DMH i.p. 0.1 mg/g bw/day, week 3",134 ± 21^b
same,Average FPG level,"[2]; Ex 2 G4 db/db, DMH i.p. 0.1 mg/g bw/day, week 6",219 ± 36^b
same,Average FPG level,"[2]; Ex 2 G4 db/db, DMH i.p. 0.1 mg/g bw/day, week 9",217 ± 37^bc
same,Average FPG level,"[2]; Ex 2 G4 db/db, DMH i.p. 0.1 mg/g bw/day, week 12",154 ± 30^ab
same,Average FPG level,"[2]; Ex 2 G4 db/db, DMH i.p. 0.1 mg/g bw/day, week 16",126 ± 43^ab
same,Average FPG level,"[2]; Ex 2 G4 db/db, DMH i.p. 0.1 mg/g bw/day, week 18",263 ± 58^b
same,Average FPG level,"[2]; Ex 2 G5 db/db, DMH i.p. 0.2 mg/g bw/day, week 0",142 ± 20^b
same,Average FPG level,"[2]; Ex 2 G5 db/db, DMH i.p. 0.2 mg/g bw/day, week 3",158 ± 25^bc
same,Average FPG level,"[2]; Ex 2 G5 db/db, DMH i.p. 0.2 mg/g bw/day, week 6",166 ± 21^b
same,Average FPG level,"[2]; Ex 2 G5 db/db, DMH i.p. 0.2 mg/g bw/day, week 9",212 ± 30^bc
same,Average FPG level,"[2]; Ex 2 G5 db/db, DMH i.p. 0.2 mg/g bw/day, week 12",191 ± 42^bc
same,Average FPG level,"[2]; Ex 2 G5 db/db, DMH i.p. 0.2 mg/g bw/day, week 16",154 ± 56^ab
same,Average FPG level,"[2]; Ex 2 G5 db/db, DMH i.p. 0.2 mg/g bw/day, week 18",308 ± 51^b
same,Average FPG level,"[2]; Ex 2 G6 db/db, DMH i.p. 0.4 mg/g bw/day, week 0",141 ± 23^b
same,Average FPG level,"[2]; Ex 2 G6 db/db, DMH i.p. 0.4 mg/g bw/day, week 3",121 ± 23^ab
same,Average FPG level,"[2]; Ex 2 G6 db/db, DMH i.p. 0.4 mg/g bw/day, week 6",175 ± 30^b
same,Average FPG level,"[2]; Ex 2 G6 db/db, DMH i.p. 0.4 mg/g bw/day, week 9",172 ± 27^b
same,Average FPG level,"[2]; Ex 2 G6 db/db, DMH i.p. 0.4 mg/g bw/day, week 12",166 ± 26^ac
same,Average FPG level,"[2]; Ex 2 G6 db/db, DMH i.p. 0.4 mg/g bw/day, week 16",108 ± 22^ab
same,Average FPG level,"[2]; Ex 2 G6 db/db, DMH i.p. 0.4 mg/g bw/day, week 18",266 ± 35^b
same,OGTT AUC vs untreated mice (DB group),"[3]; Ex 1, week 3, P<0.05",significantly smaller
same,Glucose concentration in OGTT vs DB group,"[3]; Ex 1, week 3, time points of 90 min and 120 min (FIG. 1)",significantly lower
same,OGTT AUC,[3]; [4],1298 ± 186
same,OGTT AUCs vs metformin-treated (G3) and untreated db/db mice (G2),"[3]; Ex 2, G4 and G5, weeks 6, 12, and 16, P<0.05",significantly smaller
same,Oral glucose tolerance of db/db mice after stop,"[3]; Ex 2, after the treatment had been stopped for 10 weeks",effectively increased
same,Oral glucose tolerance (OGT) of db/db mice,"[3]; Ex 2, most time points (ertapenem: weeks 6 and 12)",significantly increased
same,Level of OGTT (blood glucose),"[3]; Ex 2 G4 db/db, DMH i.p. 0.1 mg/g bw/day, dosing 6 weeks, Week 6, 0 min",219 ± 36 mg/dL
same,Level of OGTT (blood glucose),"[3]; Ex 2 G4 db/db, DMH i.p. 0.1 mg/g bw/day, dosing 6 weeks, Week 6, 15 min",866 ± 38^bc
same,Level of OGTT (blood glucose),"[3]; Ex 2 G4 db/db, DMH i.p. 0.1 mg/g bw/day, dosing 6 weeks, Week 6, 30 min",671 ± 62 mg/dL
same,Level of OGTT (blood glucose),"[3]; Ex 2 G4 db/db, DMH i.p. 0.1 mg/g bw/day, dosing 6 weeks, Week 6, 60 min",486 ± 57 mg/dL
same,Level of OGTT (blood glucose),"[3]; Ex 2 G4 db/db, DMH i.p. 0.1 mg/g bw/day, dosing 6 weeks, Week 6, 120 min",286 ± 44^bc
same,Level of OGTT (blood glucose),"[3]; Ex 2 G4 db/db, DMH i.p. 0.1 mg/g bw/day, dosing 6 weeks, Week 12, 0 min",154 ± 30^ab
same,Level of OGTT (blood glucose),"[3]; Ex 2 G4 db/db, DMH i.p. 0.1 mg/g bw/day, dosing 6 weeks, Week 12, 15 min",866 ± 36 mg/dL
same,Level of OGTT (blood glucose),"[3]; Ex 2 G4 db/db, DMH i.p. 0.1 mg/g bw/day, dosing 6 weeks, Week 12, 30 min",794 ± 60^bc
same,Level of OGTT (blood glucose),"[3]; Ex 2 G4 db/db, DMH i.p. 0.1 mg/g bw/day, dosing 6 weeks, Week 12, 60 min",503 ± 67 mg/dL
same,Level of OGTT (blood glucose),"[3]; Ex 2 G4 db/db, DMH i.p. 0.1 mg/g bw/day, dosing 6 weeks, Week 12, 120 min",372 ± 83 mg/dL
same,Level of OGTT (blood glucose),"[3]; Ex 2 G4 db/db, DMH i.p. 0.1 mg/g bw/day, dosing 6 weeks, Week 16, 0 min",126 ± 43^ab
same,Level of OGTT (blood glucose),"[3]; Ex 2 G4 db/db, DMH i.p. 0.1 mg/g bw/day, dosing 6 weeks, Week 16, 15 min",575 ± 44 mg/dL
same,Level of OGTT (blood glucose),"[3]; Ex 2 G4 db/db, DMH i.p. 0.1 mg/g bw/day, dosing 6 weeks, Week 16, 30 min",609 ± 39^c
same,Level of OGTT (blood glucose),"[3]; Ex 2 G4 db/db, DMH i.p. 0.1 mg/g bw/day, dosing 6 weeks, Week 16, 60 min",506 ± 52^c
same,Level of OGTT (blood glucose),"[3]; Ex 2 G4 db/db, DMH i.p. 0.1 mg/g bw/day, dosing 6 weeks, Week 16, 120 min",270 ± 65^bd
same,Level of OGTT (blood glucose),"[3]; Ex 2 G4 db/db, DMH i.p. 0.1 mg/g bw/day, dosing 6 weeks, Week 18, 0 min",263 ± 58 mg/dL
same,Level of OGTT (blood glucose),"[3]; Ex 2 G4 db/db, DMH i.p. 0.1 mg/g bw/day, dosing 6 weeks, Week 18, 15 min",785 ± 57 mg/dL
same,Level of OGTT (blood glucose),"[3]; Ex 2 G4 db/db, DMH i.p. 0.1 mg/g bw/day, dosing 6 weeks, Week 18, 30 min",894 ± 49 mg/dL
same,Level of OGTT (blood glucose),"[3]; Ex 2 G4 db/db, DMH i.p. 0.1 mg/g bw/day, dosing 6 weeks, Week 18, 60 min",735 ± 47 mg/dL
same,Level of OGTT (blood glucose),"[3]; Ex 2 G4 db/db, DMH i.p. 0.1 mg/g bw/day, dosing 6 weeks, Week 18, 120 min",447 ± 53 mg/dL
same,OGTT AUC,"[3]; Ex 2 G4 db/db, DMH i.p. 0.1 mg/g bw/day, dosing 6 weeks, week 6",1033 ± 87^b
